In patent US6825193B2, “Citric acid salt of a therapeutic compound and pharmaceutical compositions thereof” (Pfizer Inc., priority 2001, dated 2004):
“Also recorded” adds a separate entry of the source. Counter-ions that a name gives are not always drawn.

Key:
Assay type in all cases: physicochemical
[1] = Aqueous solubility and native pH in aqueous solution
[2] = Hygroscopicity on exposure to 90% relative humidity in a moisture chamber
[3] = Solid state stability (light, elevated temperature, high humidity challenges); conditions: elevated temperatures
[4] = Compatibility with drug product formulation excipients

## CN1CCN(c2ccccc2/C=C2\SCCN(c3ccc(Cl)c(Cl)c3)C2=O)CC1 [citrate salt, 4-(3,4-dichlorophenyl)-2-[2-(4-methylpiperazin-1-yl)-benzylidene]-thiomorpholin-3-one]
[1]
  aqueous solubility (in words): high aqueous solubility
[1]; aqueous solution at solubility 1.3 mg/ml
  native pH in aqueous solution: 3.37
[1]; water, native pH 3.37
  solubility: 1300 µg/mL
[2]
  hygroscopicity (in words): only slightly hygroscopic
[2]; at 90% relative humidity
  hygroscopicity: approximately 1.27%
[2]; on exposure to 90% relative humidity in a moisture chamber
  hygroscopicity: approximately 1.27 % wt/wt
[3]
  solid state stability (in words): excellent solid state stability; also recorded: superior to previously known salts
[4]
  inertness / compatibility towards common formulation excipients (in words): relative inertness towards common excipients; also recorded: superior to previously known salts
